From ChEMBL document CHEMBL3988442, “University of Dundee, Small-Polar-MMV Screening Library” (2021)

Experiments:
Assay type in all cases: functional
[1] = target: T1, Ubiquitin-activating enzyme e1, putative (Leishmania donovani (strain BPK282A1), UniProt E9BSI1); assay: Leishmania donovani Ubiquitin Activating Enzyme (LdE1)
T1 sequence (E9BSI1 whole entry): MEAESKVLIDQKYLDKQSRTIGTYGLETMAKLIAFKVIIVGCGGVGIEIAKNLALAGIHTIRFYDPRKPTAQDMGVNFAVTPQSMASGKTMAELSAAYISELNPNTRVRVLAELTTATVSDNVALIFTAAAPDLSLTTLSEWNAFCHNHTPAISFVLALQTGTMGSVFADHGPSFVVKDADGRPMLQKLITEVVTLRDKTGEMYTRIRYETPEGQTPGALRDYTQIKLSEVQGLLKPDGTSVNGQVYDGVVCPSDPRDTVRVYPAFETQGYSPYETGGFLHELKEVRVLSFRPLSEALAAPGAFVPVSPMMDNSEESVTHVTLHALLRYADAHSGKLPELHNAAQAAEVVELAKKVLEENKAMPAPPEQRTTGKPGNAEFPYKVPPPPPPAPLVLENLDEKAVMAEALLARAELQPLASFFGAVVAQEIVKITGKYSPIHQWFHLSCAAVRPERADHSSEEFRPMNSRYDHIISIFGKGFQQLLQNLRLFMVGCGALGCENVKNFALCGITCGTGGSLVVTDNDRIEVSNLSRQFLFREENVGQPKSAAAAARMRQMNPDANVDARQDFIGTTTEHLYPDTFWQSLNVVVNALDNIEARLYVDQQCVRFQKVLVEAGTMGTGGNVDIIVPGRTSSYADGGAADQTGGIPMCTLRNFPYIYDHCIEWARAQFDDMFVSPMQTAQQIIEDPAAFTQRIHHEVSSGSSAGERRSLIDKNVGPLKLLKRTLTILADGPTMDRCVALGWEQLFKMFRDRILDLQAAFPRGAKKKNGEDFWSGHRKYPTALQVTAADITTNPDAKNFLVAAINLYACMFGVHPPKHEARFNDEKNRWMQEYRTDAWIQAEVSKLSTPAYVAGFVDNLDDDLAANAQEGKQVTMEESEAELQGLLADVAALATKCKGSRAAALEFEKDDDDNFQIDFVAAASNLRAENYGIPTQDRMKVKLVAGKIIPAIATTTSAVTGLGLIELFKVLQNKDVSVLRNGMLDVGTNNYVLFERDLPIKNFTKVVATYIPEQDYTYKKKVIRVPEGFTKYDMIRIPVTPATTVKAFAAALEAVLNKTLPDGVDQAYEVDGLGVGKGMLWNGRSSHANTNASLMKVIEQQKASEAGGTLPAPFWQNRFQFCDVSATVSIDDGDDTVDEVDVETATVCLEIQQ

Tryptophan--tRNA ligase = Tryptophan--tRNA ligase (Mycobacterium tuberculosis (strain ATCC 25618 / H37Rv), UniProt P9WFT3); assay: Biochemical assay for Mt-TrpRS
Sequence of Tryptophan--tRNA ligase (P9WFT3 whole entry): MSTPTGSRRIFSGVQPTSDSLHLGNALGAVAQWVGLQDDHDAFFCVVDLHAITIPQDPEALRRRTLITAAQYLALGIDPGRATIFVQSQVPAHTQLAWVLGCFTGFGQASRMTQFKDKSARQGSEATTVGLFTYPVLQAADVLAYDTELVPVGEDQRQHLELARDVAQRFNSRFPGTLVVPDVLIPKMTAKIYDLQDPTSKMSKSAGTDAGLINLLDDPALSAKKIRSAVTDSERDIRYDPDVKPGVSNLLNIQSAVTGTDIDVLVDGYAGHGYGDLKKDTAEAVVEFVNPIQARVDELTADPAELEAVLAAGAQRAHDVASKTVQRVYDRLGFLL

ClpP1P2 = ClpP1P2 (Mycobacterium tuberculosis (strain ATCC 25618 / H37Rv), UniProt P9WPC3+P9WPC5); assay: in vitro assay to detect presence of AMC directly proportional to the activity of ClpP1P2. GHDDI collaboration.
Sequence of ClpP1P2 (P9WPC5 whole entry): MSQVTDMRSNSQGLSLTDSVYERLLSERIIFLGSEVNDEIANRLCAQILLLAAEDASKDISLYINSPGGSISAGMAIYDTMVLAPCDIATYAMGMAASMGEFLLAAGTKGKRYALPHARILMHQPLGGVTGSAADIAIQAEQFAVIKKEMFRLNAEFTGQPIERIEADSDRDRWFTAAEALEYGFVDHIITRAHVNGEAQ
Sequence of ClpP1P2 (P9WPC3 whole entry): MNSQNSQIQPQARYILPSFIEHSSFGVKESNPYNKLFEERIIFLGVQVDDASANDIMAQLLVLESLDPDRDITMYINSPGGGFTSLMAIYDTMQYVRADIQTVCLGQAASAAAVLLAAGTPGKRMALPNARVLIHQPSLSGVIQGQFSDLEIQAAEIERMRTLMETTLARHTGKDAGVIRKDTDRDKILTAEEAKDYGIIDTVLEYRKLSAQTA

| Compound | IC50 [1] [µM] | IC50 (Tryptophan--tRNA ligase) [µM] | IC50 (ClpP1P2) [µM] |
| --- | --- | --- | --- |
| CC(C)N1CCC(Cc2cncc(-c3cccc(C(=O)O)c3)n2)C1 (stereo unspecified) | > 100 | > 195 |  |
| CC(NC(=O)NCCNc1ccccn1)c1cccs1 (stereo unspecified) | > 100 |  |  |
| CC(C)C(NC(=O)Nc1ccccn1)c1cccs1 (stereo unspecified) | > 100 |  |  |
| CC(C)C(NC(=O)NCCNc1ncccn1)c1cccs1 (stereo unspecified) | > 100 |  |  |
| CC(C)C(NC(=O)NCCNc1cnccn1)c1cccs1 (stereo unspecified) | > 100 |  |  |
| Cc1nc(C)n(CC2CCCN(Cc3ncc(C(C)(C)C)o3)C2)n1 (stereo unspecified) | > 100 |  |  |
| CCC1CCCCN1Cc1ncc(C(C)(C)C)o1 (stereo unspecified) | > 100 |  |  |
| CCc1nnc(CN2CCCCC2Cn2nc(C)nc2C)o1 (stereo unspecified) | > 100 |  |  |
| Cc1nc(C)n(CC2CCCCN2Cc2nc3ccccc3o2)n1 (stereo unspecified) | > 100 |  |  |
| Cc1nc(C)n(CC2CCCN2Cc2ncc(C(C)(C)C)o2)n1 (stereo unspecified) | > 100 |  |  |
| Cc1nc(C)n(CC2CCCCN2Cc2cnc(C)s2)n1 (stereo unspecified) | > 100 |  |  |
| Cc1cnn(CC2CCCCN2Cc2ncc(C(C)(C)C)o2)c1 (stereo unspecified) | > 100 |  |  |
| Cc1nc(C)n(CC2CCCN2Cc2ncc(-c3ccccc3)o2)n1 (stereo unspecified) | > 100 |  | > 100 |
| Cc1cc(C)n(CC2CCCN2Cc2ncc(C(C)(C)C)o2)n1 (stereo unspecified) | > 100 |  |  |
| COc1ccc(OC)c(CNCc2ccnc(N3CCCCC3)c2)c1 | > 100 |  |  |
| COc1cc(CNCc2ccnc(N3CCCCC3)c2)cc(OC)c1 | > 100 |  |  |
| CS(=O)(=O)c1ccc(CNC(=O)Nc2cn[nH]c2)cc1 | > 100 |  |  |
| CNS(=O)(=O)c1ccc(CNC(=O)Nc2cn[nH]c2)cc1 | > 100 |  |  |
| NC(=O)c1ccc(CNC(=O)Nc2cn[nH]c2)cc1 | > 100 | > 195 |  |
| CNS(=O)(=O)Cc1cccc(CNC(=O)Nc2cn[nH]c2)c1 | > 100 |  |  |
| CCOCC(O)CN1CCN(C(=O)c2ccc(N(C)C)nn2)CC1 (stereo unspecified) | > 100 |  |  |
| CN(C)c1ccc(C(=O)N2CCN(CC(O)C(C)(C)C)CC2)nn1 (stereo unspecified) | > 100 |  |  |

| Compound | IC50 [1] [µM] | IC50 (Tryptophan--tRNA ligase) [µM] | IC50 (ClpP1P2) [µM] |
| --- | --- | --- | --- |
| CC(O)CN1CCN(C(=O)c2ccc(N3CCCC3)nn2)CC1 (stereo unspecified) | > 100 |  |  |
| CN(C)c1ccc(C(=O)N2CCN(CC(C)(C)O)CC2)nn1 | > 100 |  |  |
| CCC(O)CN1CCN(C(=O)c2ccc(N(C)C)nn2)CC1 (stereo unspecified) | > 100 |  |  |
| CCn1nc2c(cc1=O)CN(Cc1coc(-c3ccccc3)n1)CC2 | > 100 |  |  |
| Cn1nc2c(cc1=O)CN(Cc1coc(-c3ccccc3)n1)CC2 | > 100 |  |  |
| CCc1nc2n(n1)CC(NCc1nnc(C(C)C)o1)CC2 (stereo unspecified) | > 100 |  |  |
| CC(C)c1nc2n(n1)CC(NCc1nnc(C3CC3)o1)CC2 (stereo unspecified) | > 100 |  |  |
| CC(C)c1nc2n(n1)CC(NCc1ncc(C(C)(C)C)o1)CC2 (stereo unspecified) | > 100 |  |  |
| O=C(CC1CCCO1)NCc1ccccc1Cn1cncn1 (stereo unspecified) | > 100 |  |  |
| O=C(CCNC(=O)C1CCCC1)NCc1ccccc1Cn1cncn1 | > 100 |  |  |
| O=C(CCNC(=O)C1CCCC1)NCc1cccnc1-n1cncn1 | > 100 |  |  |
| COc1ccc(-c2noc(CNC(C)Cn3cccn3)n2)c(OC)c1 (stereo unspecified) | > 100 |  |  |
| CC(Cn1cccn1)NCc1nc(-c2cccc(Cl)c2)no1 (stereo unspecified) | > 100 |  |  |
| CC(Cn1cccn1)NCc1nc(-c2cccs2)no1 (stereo unspecified) | > 100 |  |  |
| COc1ccc(CNCc2ccnc(N3CCCCC3)c2)cc1OC | > 100 |  |  |
| CC(O)CN1CCN(C(=O)c2ccc(N(C)C)nn2)CC1 (stereo unspecified) | > 100 |  |  |
| CC(OCC1CC1)C(=O)N1CCCN(Cc2cnn(C)c2)CC1 (stereo unspecified) | > 100 |  |  |
| CC(OCC1CC1)C(=O)N1CCCN(Cc2nccn2C)CC1 (stereo unspecified) | > 100 |  |  |
| Cc1nc(CN2CCCN(C(=O)C(C)OCC3CC3)CC2)cs1 (stereo unspecified) | > 100 |  |  |
| COc1ccc(CNCc2ccnc(N3CCCC3)c2)c(OC)c1 | > 100 |  |  |
| COc1cc(CNCc2ccnc(N3CCCC3)c2)cc(OC)c1 | > 100 |  |  |
